{"source": "patent US11154067B2", "about": "“Membrane and method for preservation of produce” (Agricultural Research Council, priority 2015, dated 2021)", "assay_type_in_all_cases": "in vivo", "conditions_in_all_cases": "controlled atmosphere 28 days followed by 7 days at 20° C.", "key": {"Neofabraea alba": {"tested_on": "Neofabraea alba", "experiment": "Postharvest dip trials of apples against Neofabraea alba"}, "Penicillium expansum": {"tested_on": "Penicillium expansum", "experiment": "Postharvest dip trials of apples against Penicillium expansum"}, "Botrytis cinerea": {"tested_on": "Botrytis cinerea", "experiment": "Postharvest dip trials of apples against Botrytis cinerea"}}, "data": [{"smiles": "CCO", "note": "[Ethanol]", "values": [{"measurement": "antimicrobial efficacy indicated as percentage value", "setting": "Neofabraea alba; 'Golden Delicious' apples", "value": 10.41, "unit": "%"}, {"measurement": "antimicrobial efficacy indicated as percentage value", "setting": "Neofabraea alba; 'Granny Smith' apples", "value": 21.87, "unit": "%"}, {"measurement": "antimicrobial efficacy indicated as percentage value", "setting": "Neofabraea alba; 'Pink Lady' apples", "value": 19.25, "unit": "%"}, {"measurement": "antimicrobial efficacy indicated as percentage value", "setting": "Penicillium expansum; 'Golden Delicious' apples", "value": 18.07, "unit": "%"}, {"measurement": "antimicrobial efficacy indicated as percentage value", "setting": "Penicillium expansum; 'Granny Smith' apples", "value": 18.75, "unit": "%"}, {"measurement": "antimicrobial efficacy indicated as percentage value", "setting": "Penicillium expansum; 'Pink Lady' apples", "value": 0.16, "unit": "%"}, {"measurement": "antimicrobial efficacy indicated as percentage value", "setting": "Botrytis cinerea; 'Golden Delicious' apples", "value": 13.98, "unit": "%"}, {"measurement": "antimicrobial efficacy indicated as percentage value", "setting": "Botrytis cinerea; 'Granny Smith' apples", "value": 16.53, "unit": "%"}, {"measurement": "antimicrobial efficacy indicated as percentage value", "setting": "Botrytis cinerea; 'Pink Lady' apples", "value": 2.88, "unit": "%"}]}]}
